Results as given in PubChem BioAssay (NCI).
“And” between values parts separate entries of the source, which are not always exact repeats. Equal entries are not always repeated.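 Briefly, cells in 96-well plates were exposed to five compound concentrations for 48 h, and endpoints were estimated by linear interpolation. Abbreviation: GI50, concentration required for 50% inhibition of growth. The concentration for full growth arrest is given as TGI.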

Key:
Assay in all cases: growth of human tumour cells (NCI), 48 h
UACC-257 melanoma = tested on: UACC-257 melanoma
KM12 colon = tested on: KM12 colon
HL-60(TB) leukemia = tested on: HL-60(TB) leukemia
M19-MEL melanoma = tested on: M19-MEL melanoma
MALME-3M melanoma = tested on: MALME-3M melanoma
SF-539 CNS = tested on: SF-539 CNS
KM20L2 colon = tested on: KM20L2 colon
RXF 393 renal = tested on: RXF 393 renal
PC-3 prostate = tested on: PC-3 prostate
MDA-MB-435 = tested on: MDA-MB-435

SMILES | TGI (UACC-257 melanoma) [µM] | TGI (KM12 colon) | TGI (HL-60(TB) leukemia) [µM] | TGI (M19-MEL melanoma) [µM] | TGI (MALME-3M melanoma) [µM] | TGI (SF-539 CNS) | TGI (KM20L2 colon) | GI50 (UACC-257 melanoma) [µM] | GI50 (KM12 colon) [µM] | GI50 (HL-60(TB) leukemia) [µM] | GI50 (RXF 393 renal) [µM] | TGI (RXF 393 renal) [µM] | GI50 (PC-3 prostate) [µM] | TGI (PC-3 prostate) [µM] | GI50 (MALME-3M melanoma) [µM] | GI50 (MDA-MB-435) [µM] | TGI (MDA-MB-435) [µM] | GI50 (SF-539 CNS) [µM] | GI50 (M19-MEL melanoma) [µM] | GI50 (KM20L2 colon) [µM]
C(/C=C/N1CCCC1)=C\c1nc(N2CCCC2)c2ccccc2n1 | > 100 | > 100 µM | 61.3 | 32.2 | 33 | 32.8 µM | 51.7 µM |  |  |  |  |  |  |  |  |  |  |  |  | 
Cc1cc(N(CCC#N)CCC#N)ccc1/C=C/C(=O)Nc1ccccc1Cl | > 100 | > 100 µM | > 100 | > 100 | > 100 | > 100 µM | > 100 µM |  |  |  |  |  |  |  |  |  |  |  |  | 
COc1ccccc1-c1nccc(COc2ccccc2C[C@@H](Oc2ncnc3sc(-c4ccc(F)cc4)c(-c4ccc(OCCN5CCN(C)CC5)c(Cl)c4C)c23)C(=O)O)n1 | 11.2 | 12.1 µM | 0.0524 |  | 3.37 | 2.59 µM |  | 3.01 | 3.33 | 0.0205 | 0.61 | 2.16 | 1.96 | 4.81 | 1.63 | 0.45 | 2.21 | 1.21 |  | 
COc1cc2c(c(OC)c1OC)-c1ccc(SC)c(=O)cc1[C@@H](NC(=O)c1ccc(F)cc1)CC2 | > 100 | 0.0871 µM and 0.0284 µM | 12.7 | > 100 | 91.1 | 0.0696 µM and < 0.01 µM | 0.0427 µM and < 0.01 µM |  | < 0.01 |  |  |  |  |  | < 0.01 |  |  | < 0.01 | < 0.01 | < 0.01
CCOc1ccccc1NC(=O)CCC(=O)NN | > 100 | > 100 µM | > 100 |  | > 100 | > 100 µM | > 100 µM |  |  |  |  | > 100 |  |  |  |  |  |  |  | 
Cc1ccc2c(C(C[N+](=O)[O-])c3ccco3)c(-c3ccccc3)[nH]c2c1 (configuration not stated) | > 100 | > 100 µM | > 100 |  | > 100 | > 100 µM |  | > 100 | 21.5 | 28.3 | 32.2 | > 100 | 39.2 | > 100 | 21.8 | 3.04 | 10.8 | 30.6 |  | 
Cc1ccc(-c2cc(C(Cl)Cl)on2)cc1 | > 100 | > 100 µM | > 100 |  | > 100 | > 100 µM |  | 67.7 | 36.6 | 62.9 | > 100 | > 100 | 49.9 | > 100 | > 100 | 62.9 | > 100 | > 100 |  | 
CCn1c(-c2nonc2N)nc2c(C#CC(C)(C)O)ncc(OC[C@@H]3CCCN3)c21 | > 25 | 18.5 µM | 15 |  | > 25 | 15.8 µM |  | > 25 | 2.61 | 5.63 | 0.189 | 3.18 | 4.39 | > 25 | > 15.3 | 11.6 | > 25 | 1.52 |  | 
CCCCCCCCCCCCCCCCCCNC(=O)[C@H]1CSC(c2ccc(F)c(OC)c2)N1 (some centres not stated) | 1.88 | 1.79 µM | 1.62 |  | 1.82 | 6.26 µM |  | 0.971 | 0.899 | 0.67 | 0.894 | 1.6 | 1.55 | 12 | 0.951 | 0.518 | 1.2 | 1.77 |  | 
NC1(C(=O)O)CSSC1 | 22.7 | 80.9 µM | 11.9 |  | 7.12 | > 100 µM |  | 3.85 | 11.9 | 2.82 | 3.13 | 11.1 | 21.5 | > 100 | 2.77 | 3.54 | 13.9 | 7.55 |  | 
CCCC/C=C1\CCC(CN2CCCC2)C1=O (configuration not stated) | 32.8 | 8.28 µM | 31.4 | 33.5 | 33.1 | 29.8 µM | 28.7 µM |  |  |  |  |  |  |  |  |  |  |  |  | 
CN1CCN(CCCOc2ccc3ncnc(Nc4ccc(Oc5cccc(F)c5)c(Cl)c4)c3c2)CC1 | 4.06 | 3.39 µM | 4.17 |  | 3.05 | 2.93 µM |  | 1.96 | 1.81 | 2.05 | 1.56 | 3.1 | 1.68 | 3.45 | 1.56 | 1.67 | 3.19 | 1.54 |  | 
CC(=O)Nc1ccc2c(c1)CN1C(=O)c3ccccc3C1=N2 | > 100 | > 100 µM | > 100 |  | > 100 | > 100 µM |  | > 100 | > 100 | > 100 | > 100 | > 100 | > 100 | > 100 | > 100 | > 100 | > 100 | > 100 |  | 
CC(=O)OC1Oc2cc(C)c(C)cc2-c2oc(=O)c(-c3ccccc3)cc21 (configuration not stated) | 39 | 11.8 µM | 0.467 |  | > 34.7 | 0.762 µM |  | 0.537 | 0.307 | 0.111 | 0.343 | 37.1 | 0.435 | > 100 | 0.407 | 0.036 | 0.199 | 0.232 |  | 
Cc1ccc(N2C(=O)/C(=C3\Sc4c(nc(C)n(C)c4=O)N3c3ccccc3)SC2=S)cc1 | > 100 | > 100 µM | > 100 | > 100 |  | 33.7 µM | > 100 µM |  |  |  |  | 53.9 |  |  |  |  |  |  |  | 
NC(=O)c1c(NC(=O)c2cccc(C(F)(F)F)c2)sc2c1CCC(=O)C2 | 6.38 | 2.01 µM | 6.2 |  | 3.73 | 1.23 µM |  | 2.17 | 0.394 | 0.442 | 0.352 | 2.92 | 0.218 | 2.1 | 0.869 | 0.622 | 7.68 | 0.328 |  | 
Cc1ccc(NCCNCC(O)CO)c2c(=O)c3ccccc3sc12 (configuration not stated) | 3.58 | 3.6 µM | 3.7 |  | 2.76 | 3.19 µM |  | 1.87 | 1.74 | 1.62 | 1.43 | 2.89 | 1.58 | 3.22 | 1.37 | 1.52 | 3.1 | 1.67 |  | 
O=C(Nc1cccc(Cl)c1)c1cc(Cl)ccc1O | 2.87 | 6.87 µM | 3.6 |  | 2.66 | 12.4 µM |  | 0.41 | 2.39 | 0.561 | 0.849 | 4.27 | 2.6 | > 25.2 | 0.4 | 0.661 | 5.99 | 0.674 |  | 
CC(=O)[O-].O=[N+]([O-])c1ccc([O-])c(C=NCCN=Cc2cc([N+](=O)[O-])ccc2[O-])c1.[Mn+3] | > 100 | > 100 µM | > 100 | > 100 | > 100 | > 100 µM |  | > 100 | > 100 | > 100 | > 100 | > 100 |  |  | > 100 |  |  | > 100 | > 100 | 
Cc1ccc(S(=O)c2ccc([N+](=O)[O-])c3nonc23)cc1 (configuration not stated) | 23.9 | 31.1 µM | 8.93 |  | 5.12 | 39.3 µM |  | 11.6 | 15.8 | 3.09 | 2.33 | 5.53 | 12.8 | 27.1 | 2.23 | 10.2 | 26 | 19 |  | 
CC(C)(C)c1cc(C(=O)O)c(C(c2ccccc2)c2ccccc2C(=O)O)c(C(=O)O)c1 (configuration not stated) | > 100 | > 100 µM | > 100 |  | > 100 | > 100 µM | > 100 µM |  |  |  |  | > 100 |  |  |  |  |  |  |  | 
COc1ccc2nc3cc(Cl)ccc3c(Nc3ccc(O)c(CN4CCCC4)c3)c2c1 | 3.83 | > 100 µM | 6.08 |  | 4.29 | 3.49 µM |  | 2.15 | 3.13 | 2.18 | 1.7 | 3.17 | 3.28 | 11 | 2.41 | 1.76 | 3.52 | 1.87 |  | 
C#CCn1cc(C=C2C(=O)NC(=S)NC2=O)c2cc(Cl)ccc21 | 8.63 | 3.33 µM | 6.45 |  | 4.95 | 3.49 µM |  | 2.88 | 1.62 | 2.24 | 1.84 | 3.65 | 2.57 | 6.89 | 1.98 | 1.92 | 4.36 | 1.82 |  | 
Nc1nc(Cl)cc(NCCCCCCNc2cc(Cl)nc(N)n2)n1 | > 100 | > 100 µM | > 100 | > 100 |  | > 100 µM | > 100 µM |  |  |  |  | > 100 |  |  |  |  |  |  |  | 
C1=CC=C2NCCSCCNC3=CC=CC=CC3=NCCSCCN=C2C=C1 | > 100 | > 100 µM | > 100 | > 100 | > 100 |  | > 100 µM |  |  |  |  |  |  |  |  |  |  |  |  | 
COc1cccc(C2CC(=O)Nc3cc4c(cc32)CCC4)c1OC (configuration not stated) | 11.2 | 18.6 µM | 7.88 |  | 36 | 10.4 µM |  | 1.11 | 4.21 | 2.73 | 3.34 | 13.7 | 3.41 | 47.3 | 5.98 | 1.44 | 4.1 | 3.03 |  | 
